Experimental data reported in patent US4690939A, “Anti-hypertensive agents” (University of Miami, priority 1979, dated 1987).
pIC50: −log10 of the molar value. Non-standard residues stand in square brackets, D forms with d. Residues, ends and D or L forms follow the SMILES beside them. No end group written: not given here. pGlu = O=C1CC[C@@H](C(=O)O)N1

Tests used:
[1] = system: ACE; conditions: competitive substrates; cited from earlier work
[2] = molecular target: T1, human urinary ACE (Homo sapiens, UniProt P12821); assay: ACE activity assay (inhibition of benzoyl-GlyHisLeu hydrolysis); type: biochemical; conditions: substrate approximately 1/2 Km (Example 1 assay), read-out: I50
T1 construct: from tissue; host or cells: human urine
Procedure: These factors include the source of enzyme, its purity, the substrate used and its concentration, and the composition of the assay buffer.
ACE activity assay. […] To initiate the assay, 40 μl of enzyme and 10 μl of water or inhibitor dissolved in water were preincubated for five minutes at 37° C. […] To terminate the reaction, 1 ml of 0.1 M HCl was added, following which 1 ml of ethyl acetate was added. The mixture was agitated on a rotary mixer and centrifuged briefly to separate the phases.
For determination of I50 values, enzyme activity in the presence of inhibitor at a series of different concentrations was compared to activity in the absence of inhibitor.

T1 sequence (P12821 30-1232 limits assumed): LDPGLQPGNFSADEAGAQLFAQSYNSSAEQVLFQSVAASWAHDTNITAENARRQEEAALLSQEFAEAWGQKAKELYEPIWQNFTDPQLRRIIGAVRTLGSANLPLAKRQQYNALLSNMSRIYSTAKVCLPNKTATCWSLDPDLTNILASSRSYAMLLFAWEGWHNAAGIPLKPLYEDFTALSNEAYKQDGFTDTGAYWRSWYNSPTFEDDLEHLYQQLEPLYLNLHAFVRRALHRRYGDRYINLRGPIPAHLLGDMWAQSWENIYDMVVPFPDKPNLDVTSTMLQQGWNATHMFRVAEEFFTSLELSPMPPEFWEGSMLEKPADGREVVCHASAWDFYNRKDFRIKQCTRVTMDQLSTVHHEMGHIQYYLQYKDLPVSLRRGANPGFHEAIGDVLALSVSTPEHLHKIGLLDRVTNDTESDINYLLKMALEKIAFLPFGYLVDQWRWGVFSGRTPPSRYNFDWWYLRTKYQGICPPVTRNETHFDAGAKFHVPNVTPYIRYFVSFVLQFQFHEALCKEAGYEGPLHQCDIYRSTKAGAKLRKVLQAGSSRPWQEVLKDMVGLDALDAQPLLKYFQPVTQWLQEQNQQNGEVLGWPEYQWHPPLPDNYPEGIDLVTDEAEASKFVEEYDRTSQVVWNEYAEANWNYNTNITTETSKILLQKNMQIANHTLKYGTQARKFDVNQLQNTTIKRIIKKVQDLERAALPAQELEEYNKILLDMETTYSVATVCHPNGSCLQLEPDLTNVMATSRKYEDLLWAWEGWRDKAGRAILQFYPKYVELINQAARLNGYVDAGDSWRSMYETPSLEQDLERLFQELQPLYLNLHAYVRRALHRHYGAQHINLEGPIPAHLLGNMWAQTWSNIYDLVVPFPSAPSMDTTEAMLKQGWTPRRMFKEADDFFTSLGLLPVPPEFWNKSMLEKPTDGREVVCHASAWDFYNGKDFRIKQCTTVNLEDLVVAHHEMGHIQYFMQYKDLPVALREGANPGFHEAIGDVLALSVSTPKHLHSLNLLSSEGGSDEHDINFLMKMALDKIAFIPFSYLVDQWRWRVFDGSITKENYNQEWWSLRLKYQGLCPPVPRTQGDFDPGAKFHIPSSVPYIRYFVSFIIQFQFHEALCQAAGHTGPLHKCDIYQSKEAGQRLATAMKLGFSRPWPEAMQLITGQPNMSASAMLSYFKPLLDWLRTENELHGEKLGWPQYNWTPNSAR

pIC50 [2] | Compound | Km relative to angiotensin I [1]
– | C[C@H](NC(=O)[C@H](Cc1c[nH]c2ccccc12)NC(=O)[C@H](CCCCN)NC(=O)[C@@H]1CCC(=O)N1)C(=O)N1CCC[C@H]1C(=O)O [BPP5a] ([pGlu]KWAP-OH) | lower Km than angiotensin I
7.59 | CC(=O)N[C@@H](Cc1ccccc1)C(=O)SC[C@@H](C)C(=O)N1CCC[C@H]1C(=O)O [N^α -[3-(N^α -acetyl-L-phenylalanylthio)-2-D-methylpropanoyl]-L-proline] | –
– | RPPGFSPFR [bradykinin] | lower Km than angiotensin I
